Experimental data: patent US20240050406A1, “COMPOSITION COMPRISING OXIRACETAM FOR PREVENTING OR TREATING MUSCULAR DISEASE” (KSB TUGEN INC., priority 2021, published 2024)

Columns and labels:
[1] = tested on: animal model in which muscular atrophy was induced by dexamethasone; assay: Comparison with racetam-based drugs in dexamethasone muscular atrophy model (Experimental Example 4); type: in vivo, ICR mice
Text: For an experimental group in the present invention, oxiracetam having a structure of Formula 1 was purchased from Tokyo Chemical Industry (Japan; Product No. 00398, CAS RN:62613-82-5, purity: 96%) and used. Other racetam drugs, such as aniracetam and nepiracetam, were purchased from Bide Pharmatech (W-44; China, Product Nos. BD114391, BD140804, purity: 96%), piracetam, phenylpiracetam, corulacetam and pramiracetam were purchased from Tokyo Chemical Industry (Japan, Product Nos. P2880, P2604, C3689, P2061, purity: 96%), levetiracetam was purchased from Roeun China, Product No. R025860, purity: 96%), brivaracetam was purchased from R&D Systems (USA, Product No. 7271, purity: 96%), rolziracetam and faroracetam were purchased from Targetmol (USA, Product Nos. T16783, T19624, purity: 96%), and rolipram was purchased from Aladdin (MAT; China, Product No. R129674, purity: 96%).
As experimental animals, 7-week-old male ICR mice were purchased and used. […]
To measure grip strength, a grip strength test was performed. […] After measurement before drug administration (day 0) and on day 20 after drug administration began, grip strength variation (%) after drug administration began (day 20) with respect to that before drug administration (day 0) was calculated.
The lean body mass of the gastrocnemius muscle (GS) and the lean body mass of the tibialis anterior (TA) for each group were measured every 7 days. […] During photographing, the respiratory rates and body temperatures of the animal models were measured with an animal monitoring system (SA Instruments, USA).
The whole body of the animal model was photographed through dual energy X-ray absorptiometry (DEXA) using iNSiGHT VET DXA (Osteosys, KR), and the lean body mass of each of the gastrocnemius muscle (GS) and the tibialis anterior (TA) was measured and calculated from the two-dimensional images of the gastrocnemius muscle (GS) and the tibialis anterior (TA) by a program using the region of interest (ROI). […]

DMD animal model = assay: Duchenne muscular dystrophy animal model (Experimental Example 6); type: in vivo, mice (C57BL/10 ScSn-Dmdmdx/J); conditions: mdx mice, oxiracetam 30 mg/kg oral daily 35 days
Method: As experimental animals, 23-week-old male mice (C57BL/10 ScSn-Dmdmdx/J) were purchased from the Jackson Laboratory (USA) to conduct experiments. All animals were maintained under conditions of a temperature of 23±2° C. and a relative humidity of 55±10%. Before the initiation of the experiment, a total of 20 mice were randomly divided into groups of 10 animals. After adaptation for 1 week, 30 mg/kg of oxiracetam of Example 1 was orally administered daily for 35 days (drug-administered group, oxiracetam). Here, for the control (vehicle), instead of a sample, normal saline was orally administered.
For statistical analysis of the experiment, significant differences in mean values between groups were confirmed using a paired t-test, and p<0.05 is denoted as *, p<0.01 is denoted as **, p<0.001 is denoted as ***, and no significant difference is denoted as N.S. An error bar represents S.E.M.
Total lean body mass, body fat content (fat, %), the lean body mass of the gastrocnemius muscle (GS), and the lean body mass of the tibialis anterior (TA) were analyzed by dual energy X-ray absorptiometry (DEXA) every 7 days from the first day (day 0) of oral administration. Specifically, animal models of each group were anesthetized using 3% isoflurane, fixed to a photographing bed and then photographed. During photographing, the respiratory rates and body temperatures of the animal models were measured with an animal monitoring system (SA Instruments, USA).
The whole body of the animal model was photographed through dual energy X-ray absorptiometry (DEXA) using iNSiGHT VET DXA (Osteosys, KR), and the total lean body mass and the body fat content (fat, %) were analyzed. In addition, from the photographed images, the two-dimensional images of the gastrocnemius muscle (GS) and the tibialis anterior (TA) were assigned to the region of interest (ROI) using a program, and the lean body mass of each of the gastrocnemius muscle (GS) and the tibialis anterior (TA) was measured and calculated. Since the DEXA image can be used to measure and analyze the lean body mass, fat, and bone density of a mouse, it is possible to measure and calculate not only detailed lean body mass but also total lean body mass and body fat content (fat, %).
Grip strength was measured every 2 days from the first day (day 0) of oral administration. The measurement of the grip strength was performed using a grip strength meter for mice (BIOSEB), a mouse was placed on a wire mesh attached to a gauge capable of monitoring the strength, and the tail of the mouse was pulled downward to measure a force of grabbing the wire mesh. The average value was recorded by repeating measurement five consecutive times.
Body weights were measured every day from the first day (day 0) of oral administration.

[2] = drug 30 mg/kg/day (piracetam 100 mg/kg/day) oral 21 days + dexamethasone, DEXA every 7 days
[3] = day 35, compared to control (vehicle)

**Q.** With `NC(=O)CN1CC(O)CC1=O` (racemic) [oxiracetam, (RS)-2-(4-hydroxy-2-oxopyrrolidin-1-yl)acetamide] as the compound, how does the “change in grip strength” value ([1]; drug 30 mg/kg/day (piracetam 100 mg/kg/day) oral 21 days + dexamethasone 10 mg/kg i.p. day 7-21, day 20 vs day 0) read?
**A.** Its value is “recovers to greater than the control”.

**Q.** What about the “lean body mass of the gastrocnemius muscle (GS)” value [1, 2] of the same compound?
**A.** The value was “recover the lean body mass of the gastrocnemius muscle (GS) to the control (vehicle) level”.

**Q.** What about the “lean body mass of the tibialis anterior (TA)” value [1, 2] of the same compound?
**A.** The value was “recover the lean body mass of the tibialis anterior (TA) to the control (vehicle) level”.

**Q.** And the “change in body weight” value (DMD animal model)?
**A.** Its value is “does not exhibit a significant effect”.

**Q.** What about the “change in grip strength” value (DMD animal model) of the same compound?
**A.** The value was “significantly increased”.

**Q.** What about the “pseudohypertrophy (characteristic symptom of DMD)” value (DMD animal model) of the same compound?
**A.** The value was “reduced”.

**Q.** What about the “lean body mass of the gastrocnemius muscle (GS)” value (DMD animal model; compared to control) of the same compound?
**A.** The value was “significantly increased”.

**Q.** And the “lean body mass of the tibialis anterior (TA)” value (DMD animal model; compared to control)?
**A.** Its value is “significantly increased”.

**Q.** What about the “body fat mass (fat, %)” value (DMD animal model; [3]) of the same compound?
**A.** The value was “significantly reduced”.

**Q.** What about the “total lean body mass” value (DMD animal model; [3]) of the same compound?
**A.** Its value is “significantly increased”.
